How the values were obtained:
normal chickens 412 [1] = experiment: Experiment 4, flip test (25 flips), normal chickens; format: in vivo, chicken
Description: (§1) All chickens were injected with 50 mg/Kg IAPP and weighed approximately every second or third day.
(§2) B, C, D: Experimental-injected with 50 mg/Kg IAPP

dystrophic chickens 413 = experiment: Experiment 4, flip test (25 flips), dystrophic chickens; format: in vivo, chicken
Description: as §1, §2

[2] = system: normal 412 muscle explants; experiment: Microtubule complexes in muscle explants of injected normal chickens; format: in vivo, chicken
Text: Essentially, these experiments were divided into three subgroups, taken from the previous Table:
413A, 413B, 412A, 412B: All were sacrificed after 4 injections and muscle explants placed in culture.
413C, 412C: All were sacrificed after 8 injections and muscle explants were placed in culture.
413D, 412D: All were sacrificed after 10 injections and muscle explants placed in culture.
All explants were placed in CMRL culture medium containing 5% horse serum, 15% fetal bovine serum and 1% antibiotics and allowed to grow for 5-7 days before being fixed and observed for the presence or absence of microtubules. No IAPP was added to the culture medium during the 5-7 days in culture.

Carrier monocytes = experiment: Effect on human monocytes in culture (flat cells), carrier; format: cell-based; conditions: carrier monocytes + IAPP, six individuals, cultured 5-7 days; without IAPP 35.3%; preliminary
Text: In the experiments adding IAPP to such cultures, the preliminary results were as follows: […]

[3] = system: plasma PK (pyruvate kinase); experiment: Plasma PK; format: in vivo, chicken
Description: (§3) Chemotherapy was assessed by application of seven different parameters: physical tests of muscular disability, namely the flip test and wing apposition (W.A.) measurements; biochemical assays of serum and muscle enzume levels of creatine phosphokinase (CPK), pyruvate kinase (PK) and acetylcholinesterase (AChE); and histological comparisons of treated and untreated muscle. Toxicity studies (weight loss, etc.) were also used. A very comprehensive profile of the drug was thus obtained which related to all the known, highly characteristic features of the disease which are applicable to both the animal model and the human.
A massive rise in this enzyme level also occurs in the dystrophic chicken compared to the normal control, as it does in the human disease.
The drug was administered daily in water, injected intra-peritoneally, the amount being adjusted on a weekly basis according to the animal's weight.
(§4) Finally, oral therapy with IAPP was undertaken at gradually increasing dosages up to 1 g/Kg/day. The parameters (physical, biochemical and histological) measured previously were again used to test the efficacy of the drug; five different dosages were used orally, each being given for 30-60 days, daily (Tables VII-XI). A total of 75 animals were treated in the current study with IAPP and 70 control animals were used.

[4] = system: plasma AChE (acetylcholinesterase); experiment: Plasma AChE; format: in vivo, chicken; set-up: AChE: unit not given here
Description: as §3
The elevation of this enzyme in the dystrophic chicken occurs from 8 days and reaches a plateau at 100 days, compared to the normal animal where the levels continue to decline slowly. […]
as §4

[5] = system: plasma PK (pyruvate kinase); experiment: Plasma PK; format: in vivo, chicken; conditions: 300 mg/Kg i.p. three times weekly for 30 days, day 28 ex ovo
normal chickens 412 [6] = experiment: Experiment 4, weight of normal chickens injected with IAPP; format: in vivo, chicken; conditions: 50 mg/Kg
Description: as §1
A: Control-injected with PBS
as §2

[7] = 200 mg/Kg i.p. daily for 30 days, day 28 ex ovo
[8] = 200 mg/Kg i.p. daily for 30 days, day 56 ex ovo
[9] = 200 mg/Kg i.p. daily for 30 days, day 84 ex ovo
[10] = 300 mg/Kg i.p. daily for 30 days, day 28 ex ovo
[11] = 300 mg/Kg i.p. daily for 30 days, day 56 ex ovo
[12] = 300 mg/Kg i.p. daily for 30 days, day 84 ex ovo
[13] = 300 mg/Kg i.p. three times weekly for 30 days, day 84 ex ovo
[14] = Exp. 2, 40 mg/Kg i.p. daily, day 42-48
[15] = Table VII, oral 200 mg/Kg, 60 days, day 28 ex ovo
[16] = Table VII, oral 200 mg/Kg, 60 days, day 35 ex ovo
[17] = oral 300 mg/Kg daily, day 28 ex ovo
[18] = oral 300 mg/Kg daily, day 35 ex ovo
[19] = oral 450 mg/Kg daily for 45 days, day 35 ex ovo
[20] = oral 450 mg/Kg daily for 45 days, day 50 ex ovo
[21] = oral 600 mg/Kg daily, day 35 ex ovo
[22] = oral 600 mg/Kg daily, day 50 ex ovo
[23] = oral 1 g/Kg daily, day 28 ex ovo
[24] = oral 1 g/Kg daily, day 35 ex ovo
[25] = 200 mg/Kg i.p. daily for 30 days, day 45 ex ovo
[26] = 300 mg/Kg i.p. daily for 30 days, day 45 ex ovo
[27] = 300 mg/Kg i.p. three times weekly for 30 days, day 45 ex ovo
[28] = oral 450 mg/Kg daily for 45 days, day 28 ex ovo
[29] = oral 600 mg/Kg daily, day 28 ex ovo

CC(C)Nc1ncccn1.O=P(O)(O)O [IAPP, 2-isopropylaminopyrimidine orthophosphate]
Fatigue in flip test (normal chickens 412 [1]; 412D, day 25, 50 mg/Kg): did not fatigue
Flip test outcome (normal chickens 412 [1]; normal drug injected chickens, 50 mg/Kg): able to pass the flip test
Number of flips at which animal fatigued (dystrophic chickens 413; 413D experimental animal, day 25, 50 mg/Kg): 19 flips
Flip test outcome (dystrophic chickens 413; dystrophic drug injected chickens, 50 mg/Kg): able to pass the flip test
% Full Complexes Microtubules ([2]; 412B, Subgroup A, after 4 injections of 50 mg/Kg, 412A control 86%): 73%
% Full Complexes Microtubules ([2]; 412C, Subgroup B, after 8 injections of 50 mg/Kg): 76%
% Full Complexes Microtubules ([2]; 412D, Subgroup C, after 10 injections of 50 mg/Kg): 80%
% Flat Cells (Carrier monocytes): 50.0%
PK [3, 7]: 377
PK, % change from control [3, 7]: -47%
PK [3, 8]: 1612
PK, % change from control [3, 8]: -45%
PK [3, 9]: 2949
PK, % change from control [3, 9]: -36%
PK [3, 10]: 429
PK, % change from control [3, 10]: -40%
PK [3, 11]: 2447
PK, % change from control [3, 11]: -16%
PK [3, 12]: 5282
PK, % change from control [3, 12]: +15%
PK, % change from control ([3]; 300 mg/Kg i.p. three times weekly for 30 days, day 28 ex ovo): -30%
PK ([3]; 300 mg/Kg i.p. three times weekly for 30 days, day 56 ex ovo): 2486
PK [3, 13]: 3766
PK, % change from control [3, 13]: -18%
% PK Change vs untreated dystrophic controls ([3]; Exp. 2, 40 mg/Kg i.p. daily, day 14-20): -38%
% PK Change vs untreated dystrophic controls ([3]; Exp. 2, 40 mg/Kg i.p. daily, day 21-27): -57%
% PK Change vs untreated dystrophic controls ([3]; Exp. 2, 40 mg/Kg i.p. daily, day 28-34): -60%
% PK Change vs untreated dystrophic controls ([3]; Exp. 2, 40 mg/Kg i.p. daily, day 35-41): -48%
% PK Change vs untreated dystrophic controls [3, 14]: -58%
% PK Change vs untreated dystrophic controls ([3]; Exp. 2, 40 mg/Kg i.p. daily, day 56-62): -42%
% PK Change vs untreated dystrophic controls ([3]; Exp. 2, 40 mg/Kg i.p. daily, day 63-71): -41%
% PK Change vs untreated dystrophic controls ([3]; Exp. 3, 70 mg/Kg i.p. daily, day 21-27): -32%
% PK Change vs untreated dystrophic controls ([3]; Exp. 3, 70 mg/Kg i.p. daily, day 28-34): -65%
PK [3, 15]: 1925
PK, % change from control [3, 15]: -4%
PK [3, 16]: 2150
PK, % change from control [3, 16]: +6%
PK [3, 17]: 2010
PK, % change from control [3, 17]: +1%
PK [3, 18]: 907
PK, % change from control [3, 18]: +28%
PK [3, 19]: 2520
PK, % change from control [3, 19]: +0.6%
PK [3, 20]: 3891
PK, % change from control [3, 20]: +7%
PK [3, 21]: 1639
PK, % change from control [3, 21]: -36%
PK [3, 22]: 2824
PK, % change from control [3, 22]: -22%
PK [3, 23]: 1080
PK, % change from control [3, 23]: -48%
PK [3, 24]: 1812
PK, % change from control [3, 24]: -50%
AChE [4, 25]: 60.4
AChE, % change from control [4, 25]: -29%
AChE [4, 9]: 87
AChE, % change from control [4, 9]: -46%
AChE [4, 26]: 48.4
AChE, % change from control [4, 26]: -43%
AChE [4, 27]: 62.9
AChE, % change from control [4, 27]: -27%
AChE [4, 13]: 90
AChE, % change from control [4, 13]: -45%
% AChE Change vs untreated dystrophic controls [4, 14]: -55%
AChE [4, 16]: 77.8
AChE, % change from control [4, 16]: -6%
AChE [4, 28]: 520
AChE, % change from control [4, 28]: -12%
AChE [4, 29]: 46.9
AChE, % change from control [4, 29]: -21%
AChE [4, 24]: 53.9
AChE, % change from control [4, 24]: -47%
PK [5]: 499
Weight (normal chickens 412 [6]; Exp. 4, 412B, day 1): 51.3 GRAMS
Weight (normal chickens 412 [6]; Exp. 4, 412B, day 4): 55.8 GRAMS
Weight (normal chickens 412 [6]; Exp. 4, 412B, day 7): 67.6 GRAMS
Weight (normal chickens 412 [6]; Exp. 4, 412B, day 9): 68.1 GRAMS
Weight (normal chickens 412 [6]; Exp. 4, 412C, day 1): 50.8 GRAMS
Weight (normal chickens 412 [6]; Exp. 4, 412C, day 4): 59.9 GRAMS
Weight (normal chickens 412 [6]; Exp. 4, 412C, day 7): 67.8 GRAMS
Weight (normal chickens 412 [6]; Exp. 4, 412C, day 9): 67.7 GRAMS
Weight (normal chickens 412 [6]; Exp. 4, 412C, day 11): 76.4 GRAMS
Weight (normal chickens 412 [6]; Exp. 4, 412C, day 14): 111.8 GRAMS
Weight (normal chickens 412 [6]; Exp. 4, 412C, day 16): 139.0 GRAMS
Weight (normal chickens 412 [6]; Exp. 4, 412C, day 17): 150.2 GRAMS
Weight (normal chickens 412 [6]; Exp. 4, 412D, day 1): 52.6 GRAMS
Weight (normal chickens 412 [6]; Exp. 4, 412D, day 4): 60.5 GRAMS
Weight (normal chickens 412 [6]; Exp. 4, 412D, day 7): 67.7 GRAMS
Weight (normal chickens 412 [6]; Exp. 4, 412D, day 9): 67.7 GRAMS
Weight (normal chickens 412 [6]; Exp. 4, 412D, day 11): 76.6 GRAMS
Weight (normal chickens 412 [6]; Exp. 4, 412D, day 14): 112.8 GRAMS
Weight (normal chickens 412 [6]; Exp. 4, 412D, day 16): 139.6 GRAMS
Weight (normal chickens 412 [6]; Exp. 4, 412D, day 20): 191.5 GRAMS
Weight (normal chickens 412 [6]; Exp. 4, 412D, day 22): 246.4 GRAMS
Weight (normal chickens 412 [6]; Exp. 4, 412D, day 25): 273.4 GRAMS
